One assay relates to PC-3. The assay is described as follows: Cytotoxicity against human PC3 cells by sulforhodamine B assay. Type of assay: functional, cell-based. On the technique in general: Sulforhodamine B stains cellular protein and so reports cell mass.
A further assay concerns HCT-116. The assay is described as follows: Cytotoxicity against human HCT116 cells by sulforhodamine B assay. Type of assay: functional, cell-based.
Assay [1] concerns the target Rho-associated protein kinase 2 (Homo sapiens, UniProt O75116). Description: Inhibition of ROCK2 (unknown origin) using SKT S2 as substrate measured after 30 mins by HTRF assay.

Sequence of Rho-associated protein kinase 2 (O75116 whole entry): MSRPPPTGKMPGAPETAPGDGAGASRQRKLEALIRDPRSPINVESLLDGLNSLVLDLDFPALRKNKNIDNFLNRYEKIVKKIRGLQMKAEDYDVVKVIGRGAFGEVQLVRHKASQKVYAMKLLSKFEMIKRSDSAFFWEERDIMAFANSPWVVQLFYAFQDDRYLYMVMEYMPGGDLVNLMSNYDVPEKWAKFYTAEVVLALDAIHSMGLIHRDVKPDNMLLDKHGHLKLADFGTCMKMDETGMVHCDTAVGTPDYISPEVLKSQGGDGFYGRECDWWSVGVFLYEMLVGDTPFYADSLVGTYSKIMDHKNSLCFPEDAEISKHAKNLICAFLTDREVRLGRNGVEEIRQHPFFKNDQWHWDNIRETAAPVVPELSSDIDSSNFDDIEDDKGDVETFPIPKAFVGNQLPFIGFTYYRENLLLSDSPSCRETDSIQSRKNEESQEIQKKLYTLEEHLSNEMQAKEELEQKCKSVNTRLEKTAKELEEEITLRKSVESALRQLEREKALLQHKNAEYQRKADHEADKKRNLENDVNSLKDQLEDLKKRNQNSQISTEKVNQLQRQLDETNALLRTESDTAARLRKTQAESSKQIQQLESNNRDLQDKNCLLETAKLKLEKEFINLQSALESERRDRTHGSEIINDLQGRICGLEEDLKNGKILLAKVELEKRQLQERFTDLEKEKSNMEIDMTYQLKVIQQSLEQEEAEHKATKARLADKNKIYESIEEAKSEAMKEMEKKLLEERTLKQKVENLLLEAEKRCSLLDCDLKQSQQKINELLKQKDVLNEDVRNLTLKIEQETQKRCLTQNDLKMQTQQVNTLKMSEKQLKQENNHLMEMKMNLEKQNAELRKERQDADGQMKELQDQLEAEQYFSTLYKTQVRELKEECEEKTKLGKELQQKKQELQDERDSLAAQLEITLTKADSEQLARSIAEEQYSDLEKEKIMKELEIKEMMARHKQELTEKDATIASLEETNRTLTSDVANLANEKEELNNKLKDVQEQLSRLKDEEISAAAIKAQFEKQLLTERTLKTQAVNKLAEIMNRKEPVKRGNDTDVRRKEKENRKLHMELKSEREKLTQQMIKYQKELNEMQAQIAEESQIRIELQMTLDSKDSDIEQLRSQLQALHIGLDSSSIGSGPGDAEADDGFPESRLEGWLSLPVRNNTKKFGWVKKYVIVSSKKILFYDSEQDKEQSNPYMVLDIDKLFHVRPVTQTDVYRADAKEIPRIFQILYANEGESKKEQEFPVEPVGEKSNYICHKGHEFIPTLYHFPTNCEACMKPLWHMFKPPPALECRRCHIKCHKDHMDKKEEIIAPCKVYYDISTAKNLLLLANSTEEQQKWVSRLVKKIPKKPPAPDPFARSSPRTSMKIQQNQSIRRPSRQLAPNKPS

What is called IC50 is the concentration that gives 50% inhibition. Take `C/C(=C/C=C/CCO)C[C@H]1[C@H](O)[C@@](C)(O)[C@H]2[C@H](O)[C@@H](Cl)CCN12`: the values for the IC50 (in the assay with PC-3; in the assay on HCT-116; in assay [1]) were above 40 µM, above 40 µM and 39 µM, respectively.

Turning to `CC(/C=C/C1CC1)=C\[C@H]1[C@H](O)[C@@](C)(O)[C@H]2CCCCN12`, the half-inhibitory concentration (IC50) with PC-3 was above 40 µM; in the assay on HCT-116, above 40 µM; in assay [1], above 100 µM.

As to `CC(/C=C/C1CC1)=C\[C@H]1[C@H](O)[C@@](C)(O)[C@H]2[C@@H]3O[C@@H]3CCN12`, the IC50 was 23 µM in the assay with PC-3, 28 µM in the assay with HCT-116 and above 100 µM in assay [1].

For the compound `CC(/C=C/C1CC1)=C\[C@H]1[C@H](O)[C@@](C)(O)c2cccc[n+]21`, the IC50 in the assay with PC-3 is above 40 µM; in the assay with HCT-116, above 40 µM; in assay [1] it was above 100 µM.

Consider `CC(/C=C/C1CC1)=C\[C@H]1[C@H](O)[C@@](C)(O)c2c(O)ccc[n+]21`, for which the IC50 with PC-3 is above 40 µM; with HCT-116 it was above 40 µM; in assay [1] it was 27 µM.

Turning to `CC(/C=C/C1CC1)=C\[C@H]1[C@H](O)[C@@](C)(O)[C@H]2[C@H](O)[C@@H](O)CCN12`, the IC50 in the assay with PC-3 worked out at 0.52 µM; in the assay with HCT-116, 8.3 µM; in assay [1] it was 7 µM.

With `CC(/C=C/C1CC1)=C\[C@H]1[C@H](O)[C@@](C)(O)[C@H]2[C@H](O)[C@@H](Cl)CCN12`, the results for the IC50 (in the assay on PC-3; with HCT-116; in assay [1]) were 33 µM, 40 µM and above 100 µM, respectively.

As for `C/C(=C\C=C\CCO)C[C@H]1[C@H](O)[C@@](C)(O)[C@H]2[C@H](O)[C@@H](Cl)CCN12`, the IC50 with PC-3 was 17 µM; in the assay on HCT-116, above 40 µM; in assay [1] it was 42 µM.

In the assay with PC-3, `CN[C@@H]1C[C@H]2O[C@@](C)([C@@H]1OC)n1c3ccccc3c3c4c(c5c6ccccc6n2c5c31)C(=O)NC4` [STAUROSPORINE] yielded an IC50 of 0.017 µM.

In the case of `C/C(=C\C=C\CCO)C[C@H]1[C@H](O)[C@@](C)(O)[C@H]2CCCCN12`, the results for the 50% inhibitory concentration (IC50) (with PC-3; with HCT-116; in assay [1]) were above 40 µM, above 40 µM and above 100 µM, respectively.

Source of the values: ChEMBL document CHEMBL4138283, “Cyclizidine-Type Alkaloids from Streptomyces sp. HNA39” (J Nat Prod, 2018).
